Experimental findings from ChEMBL document CHEMBL1201862, “PubChem BioAssay data set” (2004) are described below.

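Cultured in 96-well plates, cells were exposed to test compound for 48 hours across five concentrations. Abbreviation: GI50, concentration required for 50% inhibition of growth.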 The source made the active and inactive calls. Rule as the data show it: active = GI50 up to about 1.1 µM and inactive = higher. Bounds are passed on as bounds.

Common to all, as to assay: growth of human tumour cells (NCI), 48 h
Experiment [1] deals with CAKI-1.
Experiment [2] concerns A498.
Experiment [3] deals with KM12.
Experiment [4] relates to K562.
The subject of experiment [5] is MOLT-4.
Experiment [6] has as its system SN12C.
Experiment [7] deals with UO-31.
Experiment [8] deals with 786-0.
Experiment [9] has as its system RXF 393.
Experiment [10] deals with M14.
Experiment [11] relates to UACC-62.
Experiment [12] deals with HOP-62.
The test system of experiment [13] is IGROV-1.
The test system of experiment [14] is SF-539.
The test system of experiment [15] is TK-10.
The subject of experiment [16] is A549.
The test system of experiment [17] is HCT-116.
Experiment [18] relates to LOX IMVI.
The test system of experiment [19] is CCRF-CEM.
In experiment [20] the test system is NCI/ADR-RES.

For the compound `N#Cc1cccc(NC(=O)c2ccc(C(=O)O)c(C(=O)c3ccc(C(=O)O)c(C(=O)Nc4cccc(C#N)c4)c3)c2)c1`, the GI50 in experiment [1], in [2], in experiment [3], in experiment [4], in experiment [5] and in experiment [6] was > 100 µM (inactive) each time. Further, the GI50 in [7], in experiment [8], in experiment [9], in [10], in [11] and in experiment [12] was > 100 µM (inactive) in each case. Further, the GI50 in experiment [13], in experiment [14], in experiment [15], in experiment [16], in experiment [17] and in [18] was > 100 µM (inactive) throughout. Further, the GI50 in [19] is > 100 µM (inactive).

As to `Cc1ccc(-c2ccc(Nc3c4ccccc4nc4ccccc34)cc2)cn1`, the GI50 in experiment [1] is 2.72 µM (inactive); in experiment [20], 8.89 µM (inactive); in experiment [3], 3.8 µM (inactive); in [4] it was 3.66 µM (inactive); in [5], 1.03 µM (active); in experiment [6], 3.89 µM (inactive). Besides, the GI50 in [7] was 3.13 µM (inactive); in experiment [8] it was 1.66 µM (inactive); in experiment [10], 2.95 µM (inactive); in experiment [11], 3.08 µM (inactive); in [12], 1.82 µM (inactive); in experiment [13], 5.43 µM (inactive). Further, the GI50 is 3.85 µM (inactive) in experiment [14]; 9.14 µM (inactive) in [15]; 2.3 µM (inactive) in [16]; 2.91 µM (inactive) in [17]; 2.71 µM (inactive) in [18].

On to `NC(=O)C12C3C4C1C1C2C3C41C(N)=O` (stereo unspecified), for which the GI50 in experiment [1], in experiment [2], in experiment [3], in experiment [4], in [5] and in [6] was > 100 µM (inactive) throughout. In addition, the GI50 in experiment [7], in experiment [8], in experiment [9], in experiment [10], in [11] and in [12] was > 100 µM (inactive) throughout. For the same compound, the GI50 in experiment [13], in [14], in experiment [15], in experiment [16], in experiment [17] and in [18] was > 100 µM (inactive) throughout. Also, the GI50 in [19] was > 100 µM (inactive).

`CCOc1ccc(NC(=S)N/C=C(/C(C)=O)C(=O)Nc2ccccc2C)cc1`: the GI50 in experiment [1], in [20], in [3], in [4], in [5] and in [6] was > 100 µM (inactive) in each case. In addition, the GI50 in experiment [7], in [8], in experiment [9], in [10], in experiment [11] and in experiment [12] was > 100 µM (inactive) in each case. The GI50 in experiment [13], in experiment [14], in experiment [15], in experiment [16], in [17] and in experiment [18] was > 100 µM (inactive) in each case.

With `C=C1CC(CC)(CCN2C(=O)c3ccccc3C2=O)OC1=O` (stereo unspecified), the GI50 in experiment [1] was 2.09 µM (inactive); in [2] it was 19.2 µM (inactive); in experiment [3] it was 21 µM (inactive); in [4] it was 20.8 µM (inactive); in experiment [5], 21.9 µM (inactive); in [6], 18.6 µM (inactive). Moreover, the GI50 is 19.7 µM (inactive) in experiment [7]; 11.9 µM (inactive) in [8]; 15.5 µM (inactive) in experiment [9]; 10.9 µM (inactive) in [10]; 13.3 µM (inactive) in experiment [11]; 35.9 µM (inactive) in [12]. In addition, the GI50 was 35.8 µM (inactive) in [13]; 18.9 µM (inactive) in experiment [14]; 17.7 µM (inactive) in experiment [15]; 27.7 µM (inactive) in experiment [16]; 12.6 µM (inactive) in experiment [17]; 14.2 µM (inactive) in experiment [18]. Besides, the GI50 in [19] is 7.71 µM (inactive).

Turning to `O=c1oc2ccc([N+](=O)[O-])cc2c(Nc2ccc3c(c2)Oc2ccccc2O3)c1[N+](=O)[O-]`, the GI50 was 28.8 µM (inactive) in experiment [1]; 29.9 µM (inactive) in [20]; 31.9 µM (inactive) in experiment [3]; 30 µM (inactive) in experiment [4]; 32.3 µM (inactive) in experiment [6]; 69.2 µM (inactive) in [7]. The GI50 in experiment [8] was 23.4 µM (inactive); in [9], 56 µM (inactive); in [10] it was 30.1 µM (inactive); in [11] it was 25.6 µM (inactive); in experiment [12], 38.9 µM (inactive); in [13] it was 28.6 µM (inactive). The GI50 in [14] is 25.4 µM (inactive); in experiment [15] it was 37.3 µM (inactive); in [16], 32.1 µM (inactive); in experiment [17], 29 µM (inactive); in experiment [18], 31.7 µM (inactive); in [19], 30.1 µM (inactive).

In the case of `c1cc2cc3c4c5c(cc6ccc7cc8cc9c%10c8c8c7c6c5c8c5c%10c(c1C9N1CCOCCOCCOCCOCCOCC1)c2c45)C3` (stereo unspecified), the GI50 in experiment [20], in [3], in experiment [4], in experiment [5], in experiment [6] and in experiment [7] was > 100 µM (inactive) each time. The GI50 in experiment [8], in experiment [9], in [10], in experiment [11], in [12] and in experiment [13] was > 100 µM (inactive) throughout. In addition, the GI50 in [14], in [15], in [16], in [17], in experiment [18] and in [19] was > 100 µM (inactive) in each case.

As for `COc1cccc(C2c3cc4c(cc3OC(NNS(=O)(=O)c3ccc(C)cc3)C2C)OCO4)c1O` (stereo unspecified), the GI50 in experiment [1] was 24.2 µM (inactive); in experiment [2] it was 25.5 µM (inactive); in experiment [3], 20.3 µM (inactive); in [4] it was 10.2 µM (inactive); in [5], 10.7 µM (inactive); in experiment [6], 37 µM (inactive). Further, the GI50 in experiment [7] was 18.5 µM (inactive); in experiment [8] it was 0.537 µM (active); in [9], 21.3 µM (inactive); in experiment [10], 24.7 µM (inactive); in experiment [11], 22 µM (inactive); in [12] it was 22.3 µM (inactive). Moreover, the GI50 was 26.9 µM (inactive) in experiment [13]; 21.6 µM (inactive) in experiment [14]; 31.8 µM (inactive) in experiment [15]; 18.6 µM (inactive) in [16]; 15.3 µM (inactive) in experiment [17]; 26.1 µM (inactive) in [18]. Also, the GI50 in experiment [19] is 10 µM (inactive).

`CC1(C)C(=S)C(C)(C)C1=S`: the GI50 in experiment [20], in experiment [3], in experiment [4], in [5], in experiment [6] and in experiment [7] was > 100 µM (inactive) in each case. For the same compound, the GI50 in [8], in experiment [10], in experiment [11], in experiment [12], in experiment [13] and in experiment [14] was > 100 µM (inactive) each time. The GI50 in experiment [15], in experiment [16], in experiment [17] and in [18] was > 100 µM (inactive) throughout.

As for `COC(=O)C(CC(=O)Nc1ccc(Cl)c(Cl)c1)C(=O)C(=O)Nc1ccc(Cl)c(Cl)c1` (stereo unspecified), the GI50 was > 100 µM (inactive) in experiment [1]; > 100 µM (inactive) in experiment [2]; > 100 µM (inactive) in experiment [3]; > 100 µM (inactive) in [4]; 94.6 µM (inactive) in [5]; > 100 µM (inactive) in [6]. Also, the GI50 in experiment [7], in experiment [8], in [9], in experiment [10], in [11] and in experiment [12] was > 100 µM (inactive) throughout. Besides, the GI50 in experiment [13], in [14], in experiment [15], in experiment [16], in [17] and in experiment [18] was > 100 µM (inactive) in each case. Besides, the GI50 in experiment [19] is > 100 µM (inactive).

In the case of `O=C1c2ccc(O)c(O)c2C(=O)c2c(O)ccc(O)c21` [QUINALIZARIN], the GI50 is 6.05 µM (inactive) in experiment [1]; 26.3 µM (inactive) in experiment [2]; 30.9 µM (inactive) in [3]; 26.5 µM (inactive) in [4]; 23.1 µM (inactive) in experiment [5]; 24 µM (inactive) in experiment [6]. Further, the GI50 in experiment [7] is 21.3 µM (inactive); in experiment [8] it was 26.3 µM (inactive); in experiment [9], 26.1 µM (inactive); in [10], 21.5 µM (inactive); in [11] it was 21.4 µM (inactive); in experiment [12] it was 26.8 µM (inactive). In addition, the GI50 is 38.4 µM (inactive) in experiment [13]; 21.4 µM (inactive) in experiment [14]; 33.8 µM (inactive) in [15]; 21.1 µM (inactive) in experiment [16]; 20.6 µM (inactive) in experiment [17]; 18.2 µM (inactive) in [18]. Further, the GI50 in experiment [19] was 20.2 µM (inactive).
